Assay results from patent US9464064B2, “HCV helicase inhibitors and methods of use thereof” (University of Kansas, priority 2011, dated 2016).

Target: T1, HCV NS3 helicase NS3h_1b(con1) (Hepatitis C virus genotype 1b, UniProt Q9WMX2)
T1 construct: truncated C-terminally His-tagged NS3 proteins lacking the N-terminal protease, called NS3h; His-tag (C); made in house
Test: MBHA screen of NCI mechanistic set library at 20 μM (percent inhibition, compound interference)
Format: biochemical
Conditions: compounds at 20 μM; for Inh. (%) (Inhibition): calculated from Equation 1
In short: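 Molecular beacon-based DNA unwinding assay; compounds screened at 20 μM in triplicate, with DMSO-only negative and 500 nM dT20 positive controls. Fluorescence (ex 643/em 670 nm) was read before and 30 min after adding ATP to 1 mM. Percent inhibition came from the change relative to DMSO controls; interference from pre-ATP fluorescence versus DMSO controls.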

[1] = MBHA with DNA substrate, assay interference calculated with Equation 2
[2] = assay interference calculated with Equation 2 (fluorescence vs DMSO-only controls before ATP)

T1 sequence (Q9WMX2 1192-1657): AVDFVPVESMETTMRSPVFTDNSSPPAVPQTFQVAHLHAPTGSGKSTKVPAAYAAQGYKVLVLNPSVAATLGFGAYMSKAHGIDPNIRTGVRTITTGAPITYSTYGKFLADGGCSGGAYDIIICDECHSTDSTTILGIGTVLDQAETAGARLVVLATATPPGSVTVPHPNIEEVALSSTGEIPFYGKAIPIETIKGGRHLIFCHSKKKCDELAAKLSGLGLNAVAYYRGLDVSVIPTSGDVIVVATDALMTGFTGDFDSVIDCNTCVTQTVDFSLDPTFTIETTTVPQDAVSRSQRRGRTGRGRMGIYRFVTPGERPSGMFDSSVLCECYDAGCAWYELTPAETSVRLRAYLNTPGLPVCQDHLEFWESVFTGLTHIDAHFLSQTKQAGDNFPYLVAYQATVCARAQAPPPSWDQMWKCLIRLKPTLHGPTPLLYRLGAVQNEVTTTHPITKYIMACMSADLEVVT

| Int.* (Ratio) (Interference) [1] | Inh. (%) (Inhibition) (MBHA with DNA substrate) | Inh. (%) (Inhibition) (MBHA with a DNA substrate) | Int.* (Ratio) (Interference) [2] | Compound |
| --- | --- | --- | --- | --- |
| 1.10 | −19.0 | – | – | CN(N=O)C(=O)N[C@@H]1[C@@H](O)[C@H](O)[C@@H](CO)O[C@@H]1O [Compound 85998] |
| – | – | −5.9 | 1.16 | CC(C)(C)C1CCC2(CC1)CCN(CCCN1CCOCC1)CC2 [Compound 90829] |
| 1.04 | −1.6 | – | – | CC1(C)O[C@@H]2C[C@H]3[C@@H]4C[C@H](F)C5=CC(=O)C=C[C@]5(C)[C@@]4(F)[C@@H](O)C[C@]3(C)[C@]2(C(=O)CO)O1 [Compound 92339] |
| 1.00 | −14.2 | – | – | CCCCCCCCCc1c(Cl)nc(Cl)nc1Cl [Compound 92510] |
| 0.91 | 38.9 | – | – | COc1cc(O)c2c(c1)C(=O)c1cc3c(c(O)c1C2=O)C(OC1OC(C)C(O)C(O)C1OC)C(OC)C(C)(O)C3=O (stereo not drawn) [Compound 93419] |
| – | – | −3.8 | 0.93 | CC(=O)NCCCCCCNC(C)=O [Compound 95580] |
| – | – | 7.7 | 0.90 | COC1(O)C(=O)c2ccccc2OC1(OC)c1ccccc1 (stereo not drawn) [Compound 95848] |
| 1.08 | 1.0 | – | – | Nc1ncnc2c(C3OC(CO)C(O)C3O)[nH]nc12 (stereo not drawn) [Compound 102811] |
| 0.76 | −11.4 | – | – | COC(=O)[C@@H]1c2cc3c(c(O)c2[C@@H](OC)C[C@@]1(C)O)C(=O)c1c(O)cc2c(c1C3=O)O[C@@H]1O[C@@]2(C)[C@H](O)[C@@H](N(C)C)[C@@H]1O [Compound 102815] |
| 0.92 | −11.6 | – | – | CCC1CN2CCc3cc(OC)c(OC)cc3C2CC1CC1c2cc(OC)c(OC)cc2CCN1C(=O)C1CCCN1C(=O)OCc1ccccc1 (stereo not drawn) [Compound 103248] |
| – | – | −42.7 | 0.92 | CC1(C)N=C(N)N=C(N)N1c1ccc(CCCCc2ccc(Cl)cc2Cl)cc1 [Compound 104129] |
| 1.00 | −9.5 | – | – | COc1ccc(C(=O)/C(Br)=C\C(=O)O)cc1 [Compound 104801] |
| 1.14 | 2.6 | – | – | NC1=C(Br)C(=O)c2ncccc2C1=O [Compound 105808] |
| 0.93 | −1.1 | – | – | COC(=O)c1ccc(=O)c2nc3/c(=C/O)c(O)cc(=O)c3[nH]c12 [Compound 106995] |
| 0.96 | −2.2 | – | – | CC(C)CCCC(=O)CCCCCCC(=O)CCN(O)C(=O)C(N)CO.O=S(=O)(O)O (stereo not drawn) [Compound 106997] |
| – | – | −6.0 | 0.90 | CC(/C=C/C(O)=C1/C(=O)CNC1=O)=C\[C@@H](C)[C@H]1O[C@]2(C)O[C@@H](C(=O)[C@@H]3O[C@@]32C)[C@@H]1C [Compound 107067] |
| 0.83 | 0.0 | – | – | CO[C@@H]1[C@@H](OC(=O)c2ccc(C)[nH]2)[C@@H](O)[C@H](Oc2ccc3c(O)c(NC(=O)c4c[nH]c(C(=O)Nc5c(O)c6ccc(O[C@@H]7OC(C)(C)[C@H](OC)[C@@H](OC(=O)c8ccc(C)[nH]8)[C@H]7O)c(C)c6oc5=O)c4C)c(=O)oc3c2C)OC1(C)C [Compound 107412] |
| 0.92 | −9.3 | – | – | CCC1CN2CCc3cc(OC)c(OC)cc3C2CC1CC1c2cc(OC)c(OC)cc2CCN1C(=O)C(Cc1c[nH]c2ccccc12)NC(=O)OC(C)(C)C (stereo not drawn) [Compound 109350] |
| 1.16 | 6.3 | – | – | CCOC(=O)c1cc2c(OC)cc(OC)cc2oc1=O [Compound 111119] |
| – | – | −29.5 | 1.00 | C=C(C)[C@@H]1CC[C@]2(C(=O)O)CC[C@]3(C)[C@H](CC[C@@H]4[C@@]5(C)CC[C@H](O)C(C)(C)[C@@H]5CC[C@]43C)[C@@H]12 [Compound 113090] |
| – | – | 7.3 | 0.94 | CC(C)(O)CCC(O)C(C)(O)C1CCC2(O)C3=CC(=O)C4(O)CC(O)C(O)CC4(C)C3CCC12C.CC(C)(O)CCC(O)C(C)(O)C1CCC2(O)C3=CC(=O)C4CC(O)C(O)CC4(C)C3CCC12C (stereo not drawn) [Compound 115493] |
| 1.02 | −12.6 | – | – | CCOC(=O)Cc1c(C)c2cc(C(=O)c3ccccc3)c(O)cc2oc1=O [Compound 115538] |
| 0.92 | −1.8 | – | – | Cc1ccc([S+](c2ccccc2)c2cc(C)ccc2C)cc1.O=C(OC(C(=O)[O-])C(OC(=O)c1ccccc1)C(=O)O)c1ccccc1 (stereo not drawn) [Compound 116693] |

More lines, now with the values behind:

| Compound | Int.* (Ratio) (Interference) [1] | Inh. (%) (Inhibition) (MBHA with DNA substrate) | Inh. (%) (Inhibition) (MBHA with a DNA substrate) | Int.* (Ratio) (Interference) [2] |
| --- | --- | --- | --- | --- |
| Cc1ccc2c(ccc(C=Cc3ccc(O)c4ncccc34)[n+]2C)c1 [Compound 85700] | 0.46 | 29.7 | – | – |
| Cc1c2c(cc3c1[nH]c1ccccc13)C=NCC2 [Compound 86100] | 1.00 | 18.6 | – | – |
| Cc1c2ccncc2cc2c1[nH]c1ccccc12 [Compound 87206] | 0.92 | 55.6 | – | – |
| O=c1cccccc1O [Compound 89303] | 0.93 | 15.8 | – | – |
| C[C@H]1CCC/C=C/[C@@H]2C[C@H](O)C[C@H]2[C@H](O)/C=C/C(=O)O1 [Compound 89671] | – | – | −5.9 | 1.04 |
| C=C(C)[C@@H]1CC[C@]2(C)CC[C@]3(C)[C@H](CC[C@@H]4[C@@]5(C)CC[C@H](O)C(C)(C)[C@@H]5CC[C@]43C)[C@@H]12 [Compound 90487] | 1.18 | −13.2 | – | – |
| CC1=CC(=C(c2ccc(N)cc2)c2ccc(N)cc2)C=CC1=N.Cl [Compound 93739] | 0.81 | −13.3 | – | – |
| NC(=S)NN=Cc1ncccc1O [Compound 95678] | 0.98 | −9.0 | – | – |
| CCN1/C(=C\C(C)=C\c2sc3ccccc3[n+]2CC)Sc2ccccc21.[I-] [Compound 96932] | 0.59 | 38.8 | – | – |
| COc1ccc2cc1Oc1ccc(cc1)CC1c3cc(c(OC)cc3CCN1C)Oc1c(OC)c(OC)cc3c1C(C2)N(C)CC3 (stereo not drawn) [Compound 97338] | 0.96 | −9.0 | – | – |
| CC1(c2cccc3ccccc23)OC(=O)c2ccccc21 (stereo not drawn) [Compound 97703] | 1.11 | −9.3 | – | – |
| CC(=O)c1ccc(Oc2ccc(/C(C)=N/N=C(N)N)cc2)cc1.O=[N+]([O-])O [Compound 97911] | – | – | 11.5 | 0.95 |
| [O-][Cl+3]([O-])([O-])[O-].c1ccc(-c2csc3c4ccccc4c4ccccc4[n+]23)cc1 [Compound 98904] | 0.89 | 41.2 | – | – |
| CN1CCC23c4ccccc4NC1C21CCN(C)C3Nc2ccccc21 [Compound 99016] | 1.10 | −8.6 | – | – |
| O=c1ccc2ccc(CBr)cc2o1 [Compound 99027] | – | – | 10.1 | 0.93 |
| Cn1c(=O)[nH]c2nncnc2c1=O [Compound 99733] | 1.02 | −17.9 | – | – |
| Cl.Cl.Nc1ccc(OCCCc2c(-c3ccccc3)nc(N)[nH]c2=O)cc1 [Compound 100856] | 0.98 | −11.6 | – | – |
| O=C1OC(c2ccccc2)=N/C1=C\c1ccc(N(CCCl)CCCl)cc1 [Compound 104117] | 1.06 | −14.5 | – | – |
| Nc1nc(Cl)nc2c1ncn2[C@H]1C[C@H](O)[C@@H](CO)O1 [Compound 105014] | 0.89 | 0.4 | – | – |
| Cc1ccc(N=Nc2c(O)ccc3ccccc23)cc1 [Compound 106296] | – | – | −5.2 | 1.23 |
| CO[C@H]1Nc2c(ccc(C)c2O)C(=O)N2C=C(/C=C/C(N)=O)C[C@@H]12 [Compound 106408] | 0.94 | 22.7 | – | – |
| O=C1C=C2C=CC3CC2(O1)C1CCCCN31 (stereo not drawn) [Compound 107415] | 0.97 | −15.2 | – | – |
| CN1CCCC2C(c3ccccc3)C(C3=NCCCC3)C(c3ccccc3)CC21.Cl (stereo not drawn) [Compound 109444] | – | – | 7.2 | 1.01 |
| N=C1C=C(N)C(=O)c2[nH]c(=O)ccc21 [Compound 111041] | – | – | −26.9 | 0.97 |
| Oc1[nH]c2ccccc2c1N=Nc1c(F)c(F)c(F)c(F)c1F [Compound 116535] | 0.93 | 5.9 | – | – |
| Cc1ccc2[nH]c(O)c(N=Nc3ccccc3[N+](=O)[O-])c2c1 [Compound 117915] | 1.00 | 1.4 | – | – |
| Cc1ccc2[c](c1)[Sn]([c]1ccccc1)([c]1ccccc1)[c]1cc(C)ccc1N2C [Compound 118030] | 0.92 | −13.1 | – | – |
| Cc1ccc(C)c2c(N=Nc3ccccc3[N+](=O)[O-])c(O)[nH]c12 [Compound 118732] | 0.89 | 14.2 | – | – |
